Experimental data published in US20160206604A1, “FORMULATIONS COMPRISING WETTING AGENTS AND COMPOUNDS FOR THE MODULATION OF HEMOGLOBIN (S)” (GLOBAL BLOOD THERAPEUTICS, INC., priority 2013, published 2016).
Several values for one entry are separate records, joined by “and”; a condition that tells them apart may be missing. Equal entries are not always repeated. Where two headings read alike, the source gives them in different places.

Assays:
[1] = Pharmacokinetics of compound 12 following oral administration of compound 53 formulation, rats; conditions: following oral administration 10 mg/kg
[2] = biological target: T1, HbS (Homo sapiens, UniProt P68871+P69905, E7V); assay: Polymerization assay; type: biochemical; parameters: HbS is purified by the CRO VIRUSYS, from blood obtained from homozygous sickle cell patients; tissue VIRUSYS (CRO that did the purification); host or cells: blood of homozygous sickle cell patients; conditions: 75 μM compound; for Polymerization (75 μM)/(% DT): 50 μM purified HbS, percent delay time
Protocol: Polymerization assays are carried out in vitro using purified HBS exchanged into 1.8 M potassium phosphate buffer at pH 7.4. Using a slightly modified protocol (Antonini and Brunori, 1971), HbS is purified by the CRO VIRUSYS, from blood obtained from homozygous sickle cell patients through the Hemoglobinopathy Center at Children's Hospital Oakland Research Institute (CHORI) with Institutional Review Board approval. Compounds are prepared in 100% DMSO and a desired amount is added to 50 μM of purified HbS at a final DMSO concentration of 0.3%. Final potassium phosphate concentration is adjusted to 1.8 M using a combination of 2.5 M potassium phosphate stock solution and water at pH 7.4. The reaction mixture is incubated for an hour at 37° C. and then transferred into a 24-well plate for deoxygenation in a glove box containing 99.5% nitrogen and 0.5% oxygen. The 24-well plate is not covered and incubated at 4° C. on a plate cooler inside the glove box for one and a half hours. Fifty μL of the reaction mixture is transferred into a 96-well plate and the absorbance at 700 nm is measured every minute for one hour at 37° C. in a plate reader located inside the glove box. A plot of the absorbance against time is fitted using a Boltzman sigmoidal fit and the delay time (from zero to time at half Vmax) is measured. To compare and rank compounds, delay times are expressed as percent delay (% DT), which is defined as the difference in delay times for HbS/compound and HbS alone multiplied by 100 and divided by the delay time for HbS alone.
Results: Compounds listed below have been tested in the polymerization assay. Activity ranges are defined by the number of dagger (†) symbols indicated. † denotes activity ≧40% but ≦80%; †† denotes activity >80% but ≦120%; ††† denotes activity >120% but ≦140%; †††† denotes activity >[…].

[3] = biological target: T1, HbS; assay: Reverse Hemox assay (oxygen equilibrium curves of whole blood); type: cell-based; parameters: Oxygen Equilibrium Curves (OEC) of whole blood before and after treatment; from tissue; host or cells: whole blood (red blood cells) of homozygous sickle cell patients; conditions: 1 mM compound, sickle cell whole blood; for Reverse Hemox (1 mM)/(delta p50%): hematocrit 20%, 1 hour 37° C.
Protocol: Oxygen Equilibrium Curves (OEC) of whole blood before and after treatment with different concentrations of compounds 12, 22 and 23 were performed as follows using a HEMOX analyzer (TCS Scientific, New Hope, Pa.). Blood samples from homozygous sickle cell patients were obtained though the Hemoglobinopathy Center at Children's Hospital Oakland Research Institute (CHORI) with Institutional Review Board approval. The hematocrit was adjusted to 20% using autologous plasma and the blood samples were incubated for 1 hour at 37° C. in absence or presence of compounds. 100 μl of these samples were added to 5 mL of Hemox buffer (30 mM TES, 130 mM NaCl, 5 mM KCl, pH=7.4) at 37° C. and then transferred to the Hemox sample chamber. The samples were saturated with oxygen by flushing with compressed air for 10 minutes. The samples were then flushed with pure nitrogen and the respective absorbances of oxy- and deoxy-Hb were recorded as a function of the solution pO2. The oxygen equilibrium data were then fitted to the Hill Model to obtain values for p50. The deoxygenation curves for both whole blood alone (control) and whole blood in the presence of the compound were collected with the TCS software.
Results: Table 3 below lists the delta p50% values where “+” indicates a delta p50% of between 0 and 29, “++” indicates a delta p50% of between 30 and 50, and “+++” indicates a delta p50% of 50 or greater.

[4] = biological target: T2, HbS/A (Homo sapiens, UniProt P68871+P69905, E7V); assay: R/T assay (relaxed-to-tense transition assay); type: biochemical; conditions: for R-T (9 μM)/(delta R), class / R-T (9 μM)/(delta R): 9 μM compound; for R-T (9 μM)/(delta R) / R-T (10 μM)/(delta R): 3 μM HbS/A; for R-T (10 μM)/(delta R), class / R-T (10 μM)/(delta R): 10 μM compound
T2 construct: A mixture of HbS/A was purified from blood obtained from homozygous sickle cell patients; from tissue; host or cells: blood of homozygous sickle cell patients; hemoglobin purified from it
Protocol: This ability can be expressed as a “delta R” value (i.e., the change in the time-period of the R state after hemoglobin is treated with a compound, as compared to the period without treatment with the compound). Delta R is the % R to remaining after the compounds treatment compared with no treatment (e.g. if R % without treatment is 8% while with treatment with a target compound is 48% R at 30 μM, then % R is 40% for that compound.
A mixture of HbS/A was purified from blood obtained from homozygous sickle cell patients though the Hemoglobinopathy Center at Children's Hospital Oakland Research Institute (CHORI) with Institutional Review Board approval. HbS/A (at a final concentration of 3 μM) was incubated for 1 hr at 37° C. in presence or absence of compounds in […] potassium phosphate buffer, pH=7.4 and 30 μM 2, 3 diphosphoglycerate (DPG) in 96 well plates in a final volume of 160 μl. Compounds were added at different concentrations (3 μM to 100 μM final concentrations). Plates were covered with a Mylar film. After incubation was completed the Mylar cover was removed and the plates were placed in a Spectrostar Nano plate reader previously heated at 37° C. Five minutes later, N2 (flow rate=20 L/min) was flowed through the spectrophotometer. Spectroscopic measurements (300 nm to 700 nm) were taken every 5 min for 2 hours. Data analysis was performed by using linear regression from the data retrieved for all wavelengths.
Results: Table 3 below lists the delta R values where “+” indicates a delta R of between 0 and 30, “++” indicates a delta R of between 30 and 50, and “+++” indicates a delta R of 50 or greater.

[5] = Pharmacokinetic (PK) properties in rats, oral or intravenous dosing; type: in vivo, Rats (Sprague-Dawley); conditions: for blood plasma ratio: male, Sprague-Dawley, rat, whole blood and plasma, po, 10 mg/kg, dosed orally
Protocol: This experiment was established and used in order to assess the pharmacokinetic (PK) properties of the compounds.
Sample collection and data analysis: Rats (Sprague-Dawley, male, 8-12 weeks old) were dosed with one of three compounds corresponding to compound 12, compound 22 or compound 23. The rats received oral (10 mg/kg) or intravenous (1 mg/kg) doses of the compound. Rats were fasted overnight before the experiments and provided with food after the 2 hour sampling time point.
(§1) Blood samples were collected at different time points. Blood was anti-coagulated by 3.2% TSC (trisodium citrate) and a portion was separated into plasma fraction by centrifugation and removal of blood cells. Plasma and lysed blood samples were analyzed for drug concentration using LC-MS/MS. PK parameters were calculated by non compartmental analysis of the concentration-time profiles using WinNonLin software (Pharsight, Mountain View, Calif.). Apparent elimination half-life (t1/2) values were calculated as ln(2)/k. Area under the concentration-time curve (AUC) values were estimated using the linear trapezoidal method. AUClast values were calculated from the dosing time to the last measurable concentration. AUCinf values were calculated as the sum of the corresponding AUClast and the ratio of the last detectable concentration divided by k. Plasma clearance (Cl) is calculated from Dose/AUCinf. Volume of distribution at steady state (Vss) is calculated from Mean Residence Timeinf×Clss. Maximum concentration (Cmax) and time to Cmax (Tmax) was recorded as observed. The blood/plasma partitioning ratio was calculated at each experimental time point.

[6] = biological target: hemoglobin (Homo sapiens, UniProt P68871+P69905); assay: In vitro system measuring binding to hemoglobin and human serum albumin; conditions: both proteins present in their respective physiologic ratio
Protocol: However, when the red blood cell compartment is considered, compound 12 unexpectedly partitions into blood to a far greater extent than compound 22 or compound 23. […] When the red blood cell/plasma ratio was measured at the peak concentration, compound 12 partitioned at a ratio of 70 to 1 into the erythrocytes attesting to its preferential partition into the compartment which contains the drug target hemoglobin. Supportive data was reported in an in vitro system measuring binding of compound 12 to hemoglobin and human serum albumin.

[7] = Pharmacokinetics of compound 12 suspension formulation (methylcellulose/sodium dodecyl sulfate), oral, rats; type: in vivo, Sprague-Dawley rats
Protocol: as §1
A suspension of Compound 12 was prepared by triturating 250 mg of compound 12 in a mortar with 2 mL of 0.5% methylcellulose in water and 200 μL of 0.5% sodium dodecyl sulfate. After approximately 5 minutes, the suspension was homogeneous. The volume of the mixture was adjusted to 12.5 mL with 0.5% methylcellulose to obtain a final concentration of 20 mg/mL. To prepare a 10 mg/mL suspension of compound 12, the 20 mg/mL suspension was diluted two-fold with 0.5% methylcellulose.
Pharmacokinetics of compound 12 following an oral administration of compound 12 suspension at 50 mg/kg or 100 mg/kg were studied in male Sprague-Dawley rats (n=3/group) using the method described in Example 1. Maximum blood concentration of compound 12 was achieved within 6 hours. The maximum concentrations at 50 mg/kg and 100 mg/kg compound 12 were 281 μg/mL (903 μM) and 327 μg/mL (1050 μM), respectively.

[8] = overall exposure, read-out: Blood/plasma (Ratio of exposure AUCINF)

SMILES | in vivo conversion of prodrug [1] | Polymerization (75 μM)/(% DT), class [2] | Polymerization (75 μM)/(% DT) [2] | Reverse Hemox (1 mM)/(delta p50%), class [3] | Reverse Hemox (1 mM)/(delta p50%) [3] | R-T (9 μM)/(delta R), class [4] | R-T (9 μM)/(delta R) [4] | R-T (10 μM)/(delta R), class [4] | R-T (10 μM)/(delta R) [4] | blood plasma ratio ([5]; at Cmax, read-out: Blood/plasma (Ratio of peak concentration)) | blood plasma ratio [5, 8] | binding to hemoglobin versus human serum albumin [6] | AUC(0-inf) ([7]; male, Sprague-Dawley, rat, blood, oral suspension 50 mg/kg) | half-life ([7]; male, Sprague-Dawley, rat, blood, oral suspension 50 mg/kg or 100 mg/kg, read-out: mean terminal half-life) | AUC(0-inf) ([7]; male, Sprague-Dawley, rat, blood, oral suspension 100 mg/kg) | time to maximum blood concentration ([7]; oral suspension 50 mg/kg or 100 mg/kg) | maximum concentration ([7]; oral suspension 50 mg/kg, blood) | maximum concentration ([7]; oral suspension 100 mg/kg, blood) | red blood cell/plasma ratio at the peak concentration ([5]; ratio to 1 into erythrocytes)
CC(C)n1nccc1-c1ncccc1COc1cccc(OP(=O)(O)O)c1C=O [Compound 53, 2-formyl-3-((2-(1-isopropyl-1H-pyrazol-5-yl)pyridin-3-yl)methoxy)phenyl dihydrogen phosphate] | converted to compound 12 |  |  |  |  |  |  |  |  |  |  |  |  |  |  |  |  |  | 
COc1cc(C=O)c(OCc2cccnc2-c2ccccc2C)cn1 [Compound 23, 2-methoxy-5-[[2-(2-methylphenyl)pyridin-3-yl]methoxy]pyridine-4-carbaldehyde] |  | †† (†† denotes activity >80% but ≦120%) | 98.19% | +++ (“+++” indicates a delta p50% of 50 or greater) | 72.45% | ++ (“++” indicates a delta R of between 30 and 50) | 37.15 | +++ (“+++” indicates a delta R of 50 or greater) | 51.55 | 3 | 1 |  |  |  |  |  |  |  | 
CC(C)n1nccc1-c1ncccc1COc1cccc(O)c1C=O [Compound 12, 2-hydroxy-6-[[2-(2-propan-2-ylpyrazol-3-yl)pyridin-3-yl]methoxy]benzaldehyde] |  | †† (†† denotes activity >80% but ≦120%) | 108.56% | +++ (“+++” indicates a delta p50% of 50 or greater) | 79.83% | +++ (“+++” indicates a delta R of 50 or greater) | 65.45 | +++ (“+++” indicates a delta R of 50 or greater) | 62.75 |  |  | preferentially binding to hemoglobin | 7340 µg·h/mL | 16 to 19 h | 9460 µg·h/mL | ≤ 6 h | 281 μg/mL and 903 μM | 327 μg/mL and 1050 μM | 70
COc1cc(C=O)c(OCc2cccnc2-c2ccnn2CC(F)F)cn1 [Compound 22, 5-[[2-[2-(2,2-difluoroethyl)pyrazol-3-yl]pyridin-3-yl]methoxy]-2-methoxypyridine-4-carbaldehyde] |  | †† (†† denotes activity >80% but ≦120%) | 90.22% | +++ (“+++” indicates a delta p50% of 50 or greater) | 68.69% | ++ (“++” indicates a delta R of between 30 and 50) | 31.02 | ++ (“++” indicates a delta R of between 30 and 50) | 36.25 |  | 5 |  |  |  |  |  |  |  | 
